Results from patent US7951831B2, “Use of inhibitors of soluble epoxide hydrolase to synergize activity of COX and 5-LOX inhibitors” (The Regents of the University of California, priority 2005, dated 2011).

Key:
[1] = tested on: arachidonic acid metabolites in mouse plasma; experiment: plasma oxylipin metabolites in mice exposed to LPS (LC-MS/MS); assay type: in vivo; conditions: AUDA-BE 20 mg/Kg alone
[2] = tail flick assay, without induction of pain; assay type: in vivo, mice; conditions: sc in oleic oil, responses after 90 minutes; no induction of pain
Procedure: Briefly, mice are kept under 12:12 h light: dark cycle and water and food is supplied ad libitum. Mice are trained for three days to the experimental chambers in 30 min sessions each time. The next day baseline readings are taken. Vehicle control (oleic oil) is then injected sc in the next day and measurements are taken. Two days later, animals are injected through the sc route with test compounds dissolved in the oil vehicle and their responses are recorded after 90 minutes.
Tail flick and hind paw withdrawal latency tests are conducted according to D'Amour and Smith, J Pharmacol Exp Ther 72:74-9 (1941), and Woolfe and McDonald, J Pharmacol Exp Ther, 80:300-7 (1944). In tail flick assays, mice are placed in restrainers and left undisturbed for 30 minutes. Readings are then taken by placing the posterior end of the tail onto a tail flick apparatus that has a radiant heat source set to 55 C. Five measurements per animal are taken at two-minute intervals. The latency to move the tail is recorded. In hind paw withdrawal assays, the mice are placed in an experimental chamber with a glass surface. The temperature of this surface is kept constant at 30° C. After a 30-minute period of acclimation, radiant heat is applied to the plantar surface of the hind paw. Five measurements per animal are taken at two-minute intervals. The latency to move the paw is recorded. […]

COX-2 protein = experiment: Western immunoblot of COX-2 protein in livers of mice; assay type: in vivo; conditions: liver; LPS 10 mg/Kg i.p.; COX-2 inhibitor 50 mg/Kg or AUDA-BE 20 mg/Kg sc (FIG. 8)
Procedure: Horizontal axis: treatment administered to the mice. First column: vehicle (oleic acid, administered subcutaneously (“s.c.” or “sc”)). Second column: lipopolysaccharide (“LPS”, 10 mg/Kg i.p.) and vehicle. […] Fifth column: AUDA-BE (20 mg/Kg sc). Sixth column: AUDA-BE (20 mg/Kg sc)+LPS (10 mg/Kg i.p.). […] Vertical axis: depicts percentage of protein induced in test animals receiving designated treatment compared to that of control mice receiving vehicle without LPS.
Western immunoblot analysis was performed with proteins isolated from liver to detect cycloxygenase 2 (COX-2). The isolated proteins were separated by electrophoresis on 10% SDS-PAGE and then transferred onto polyvinylidene fluoride membranes (Immobilon P, Millipore Corp., Bedford, Mass.). […] The membranes were incubated with rabbit anti-mouse HRP-linked IgG (Amersham, Arlington Heights, Ill.) at 1:10,000 dilution, washed, then contacted with secondary antibody and visualized using SuperSignal® West Femto Maximum Sensitivity Substrate (Pierce Biotechnology, Inc., Rockford, Ill.), a chemiluminiscence detection system, per manufacturer's instructions. The immunodetectable bands were quantified by densitometry with Kodak 1.D Image Analysis System v.

COX-2 / COX-1 = conditions: the smaller the ratio, the more specific for COX-2; cited from earlier work
sEH = biological target: T1, sEH (Homo sapiens, UniProt P34913); experiment: inhibition of soluble epoxide hydrolase; assay type: biochemical
T1 sequence (P34913 1-555): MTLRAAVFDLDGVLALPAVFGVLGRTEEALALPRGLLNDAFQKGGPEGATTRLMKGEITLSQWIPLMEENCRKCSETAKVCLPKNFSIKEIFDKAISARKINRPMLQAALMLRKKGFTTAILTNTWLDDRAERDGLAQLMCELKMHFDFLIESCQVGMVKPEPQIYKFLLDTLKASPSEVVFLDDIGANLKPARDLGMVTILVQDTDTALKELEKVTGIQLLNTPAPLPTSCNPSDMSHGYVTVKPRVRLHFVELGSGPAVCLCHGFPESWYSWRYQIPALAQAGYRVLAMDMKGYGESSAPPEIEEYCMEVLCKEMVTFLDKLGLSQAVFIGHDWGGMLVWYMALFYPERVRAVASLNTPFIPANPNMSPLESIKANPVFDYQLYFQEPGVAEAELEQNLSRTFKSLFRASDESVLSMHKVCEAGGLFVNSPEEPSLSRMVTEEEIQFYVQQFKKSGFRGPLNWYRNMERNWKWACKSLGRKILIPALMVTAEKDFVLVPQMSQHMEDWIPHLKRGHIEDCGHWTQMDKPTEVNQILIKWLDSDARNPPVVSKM
Excerpt: Any of a number of standard assays for determining epoxide hydrolase activity can be used to determine inhibition of sEH. For example, suitable assays are described in Gill, et al., Anal Biochem 131, 273-282 (1983); and Borhan, et al., Analytical Biochemistry 231, 188-200 (1995)). Suitable in vitro assays are described in Zeldin et al., J Biol. Chem. 268:6402-6407 (1993). Suitable in vivo assays are described in Zeldin et al., Arch Biochem Biophys 330:87-96 (1996). […]
The enzyme also can be detected based on the binding of specific ligands to the catalytic site which either immobilize the enzyme or label it with a probe such as dansyl, fluoracein, luciferase, green fluorescent protein or other reagent. […] The enzyme also can be detected based on the generation of fluorescent products following the hydrolysis of the epoxide. […]

metabolic stability = assay type: in vitro ADME

For `CCCCOC(=O)CCCCCCCCCCCNC(=O)NC12CC3CC(CC(C3)C1)C2` [AUDA-BE, 12-(3-adamantane-1-yl-ureido)-dodecanoic acid butyl ester], the “5-HETE, percentage of metabolite compared to control mice receiving vehicle without LPS” value [1] was 262±21%, the “6-keto-PGF1a, percentage of metabolite compared to control mice receiving vehicle without LPS” value [1] was 128±6% and the “PGE2, percentage of metabolite compared to control mice receiving vehicle without LPS” value [1] was 241±2%. The “ΣDHOME, percentage of metabolite compared to control mice receiving vehicle without LPS” value [1] was 141±15%, the “ΣEpOME, percentage of metabolite compared to control mice receiving vehicle without LPS” value [1] was 122±8% and the “analgesic effect in tail flick assay” value [2] was “slight but significant analgesic effect”. The “amount of COX-2 relative to control mice” value (COX-2 protein) was “about 4 times”.

For `CC(=O)Oc1ccccc1C(=O)O` [Aspirin, aspirin], the “COX-2 (IC50)/COX-1 (IC50) ratio” value (COX-2 / COX-1) is given as 0.32.

In the case of `CCCCCCCCCCCCNC(=O)NC12CC3CC(CC(C3)C1)C2` [ADU, N-Adamantyl-N′-dodecyl urea], the “activity as an inhibitor of sEH” value (sEH) is reported as “particularly high activity” and the metabolic stability (metabolic stability) is reported as “metabolically stable”.
